Test results reported in publication PMC11618697 (Nature Communications, 2024).
Residues, ends and D or L forms follow the SMILES beside them. *: point of attachment. Cbz = O=C(OCc1ccccc1)*

Columns and labels:
human CD25 = assay: IHC staining of human CD25 in Hut78 xenograft tumors; type: in vivo, NSG mice
[1] = test system: Foxp3 in HH and Hut78 cells; assay: Intracellular staining of Foxp3; type: cell-based, human; details: 1 µM, 48 h
Hut78 cells [2] = assay: Cell proliferation assays; type: cell-based, human
[3] = test system: CD25, CD5 and CD7 on HH and Hut78 cells; assay: Flow cytometry of CD25, CD5 and CD7; type: cell-based, human; details: 2 µM, 48 hours
Hut78 cells [4] = assay: IC50 assay, trypan blue exclusion count; type: cell-based, human
HH cells [5] = assay: Candidate PROTACs, cell viability by CCK8; type: cell-based, human; details: CCK8 (Fig 3c)
CDK2, CDK6 and CDK7 = assay: Western blot of other CDKs in Hut78 cells; type: cell-based, human
Hut78 cell proteins = assay: Quantitative MS-based proteomics of Hut78 cells; type: cell-based, human
HH cells [6] = assay: IC50 assay, trypan blue exclusion count; type: cell-based; details: Homo sapiens, 48 h
293T cells = assay: Viability of normal cells, trypan blue; type: cell-based, human
[7] = test system: CDK9 (55 kDa) and CDK9 (42 kDa) mRNA; assay: Q-PCR of CDK9 isoforms in Hut78 cells; type: cell-based, human
CDK9 [8] = target: T1, CDK9 (Homo sapiens, UniProt P50750); assay: DC50; type: cell-based; details: CDK9 in Hut78 cells; 10 h
Hut78 xenografts = assay: Hut78 cell line derived xenograft in NSG mice; type: in vivo
CDK9 [9] = target: T1, CDK9; assay: Western blot of CDK9 in Hut78 cells; type: cell-based; details: for degradation of CDK9 (immunoblot): Hut78 cells
CDK9 [10] = target: T1, CDK9; assay: IHC staining of human CDK9 in Hut78 xenograft tumors; type: in vivo, NSG mice; details: intraperitoneal injection
RARα = assay: Western blot of RARα in Hut78 cells; type: cell-based, human
RARA mRNA = assay: Q-PCR of RARA in Hut78 cells; type: cell-based, human
HH tumors = assay: HH cell line derived xenograft in nude mice; type: in vivo
CDK9 [11] = target: T1, CDK9; type: cell-based; details: Hut78; 10 μM for 2 h prior to 6-h of GT-02897 (100 nM)
CDK9 [12] = target: T1, CDK9; assay: Western blot of CDK9 in MOLT-4 cells; type: cell-based; details: MOLT-4 acute lymphoblastic leukemia cell line
Hut78 cells [13] = assay: Cell viability / cell death at fixed dose, trypan blue; details: 250 nM, trypan blue (Supplementary Fig 4a)
CDK9 [14] = assay: Western blot of CDK9 in HH cells; details: HH cells (Fig 3b)

T1 sequence (P50750 whole entry): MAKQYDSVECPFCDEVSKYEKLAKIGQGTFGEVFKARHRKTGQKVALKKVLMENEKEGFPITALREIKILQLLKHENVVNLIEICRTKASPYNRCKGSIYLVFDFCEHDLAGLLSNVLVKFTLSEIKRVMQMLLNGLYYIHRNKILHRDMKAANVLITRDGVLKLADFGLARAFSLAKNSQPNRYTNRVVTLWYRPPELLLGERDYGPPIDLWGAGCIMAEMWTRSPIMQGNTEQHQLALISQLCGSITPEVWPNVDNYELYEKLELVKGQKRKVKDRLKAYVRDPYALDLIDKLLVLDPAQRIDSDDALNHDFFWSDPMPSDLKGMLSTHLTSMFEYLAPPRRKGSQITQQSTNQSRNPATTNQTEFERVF

CC1=C(/C=C/C(C)=C/C=C/C(C)=C/C(=O)O)C(C)(C)CCC1 [ATRA, all-trans retinoic acid]
CD25 expression in isolated tumor tissues (IHC) (human CD25): in vivo upregulation of CD25 expression | Expression of Foxp3 [1]: not changed | CTCL cell growth and apoptosis (Hut78 cells [2]; CTCL cells (Hut78, Fig 7g)): significant inhibition of cell growth without cell apoptosis | cell growth of shCDK9-infected Hut78 cells (Hut78 cells [2]; Hut78 infected with shCDK9): more pronounced inhibition of cell growth | CD5 and CD7 level (flow cytometry) [3]: unchanged | CD25 expression (flow cytometry) [3]: emerging expression of CD25

CC(C)(C)c1cnc(CSc2cnc(NC(=O)C3CCN(C(=O)CCCSc4cccc5c4C(=O)N(C4CCC(=O)NC4=O)C5=O)CC3)s2)o1 (centres unmarked) [Compound 9, N-(5-(((5-(tert-butyl)oxazol-2-yl)methyl)thio)thiazol-2-yl)-1-(4-((2-(2,6-dioxopiperidin-3-yl)-1,3-dioxoisoindolin-4-yl)thio)butanoyl)piperidine-4-carboxamide]
IC50 (Hut78 cells [4]; Homo sapiens, HuT78, 48 h): 339 nM | concentration displaying significant killing effects (HH cells [5]): below 500 nM

CC(C)(C)c1cnc(CSc2cnc(NC(=O)C3CCN(C(=O)COCCOCCSc4cccc5c4C(=O)N(C4CCC(=O)NC4=O)C5=O)CC3)s2)o1 (centres unmarked) [Compound 19, N-(5-(((5-(tert-butyl)oxazol-2-yl)methyl)thio)thiazol-2-yl)-1-(2-(2-(2-((2-(2,6-dioxopiperidin-3-yl)-1,3-dioxoisoindolin-4-yl)thio)ethoxy)ethoxy)acetyl)piperidine-4-carboxamide]
IC50 (Hut78 cells [4]; Homo sapiens, HuT78, 48 h): 404 nM | concentration displaying significant killing effects (HH cells [5]): below 500 nM

CC(C)(C)c1cnc(CSc2cnc(NC(=O)C3CCN(CCCCCSc4cccc5c4CN(C4CCC(=O)NC4=O)C5=O)CC3)s2)o1 (centres unmarked) [Compound 23, N-(5-(((5-(tert-butyl)oxazol-2-yl)methyl)thio)thiazol-2-yl)-1-(5-((2-(2,6-dioxopiperidin-3-yl)-1-oxoisoindolin-4-yl)thio)pentyl)piperidine-4-carboxamide]
protein levels of CDK2, CDK6 and CDK7 (immunoblot) (CDK2, CDK6 and CDK7): without interfering protein levels of CDK2, CDK6 and CDK7 | IC50 (Hut78 cells [4]; Homo sapiens, HuT78, 48 h): 49.7 nM | CDK9 abundance in quantitative proteomics (Hut78 cell proteins; 6 h after treatment, 5,689 proteins): one of the most significantly downregulated proteins | RARα protein (Hut78 cell proteins; proteomics 12 hours, validated by western blot): significantly upregulated | IC50 (HH cells [6]): 66.2 nM | killing effects on 293T cell (293T cells): minimal killing effects | mRNA expression of CDK9 (42 kDa) and CDK9 (55 kDa) isoforms [7]: not affected | DC50 (CDK9 [8]): 2.85 nM | CTCL tumors in vivo, co-administration with ATRA (Hut78 xenografts; Hut78 xenograft): more significant inhibition of CTCL tumors in vivo | Hut78 cell growth in vivo (Hut78 xenografts; every other day, intraperitoneal or subcutaneous injection, 14 days): significantly suppress Hut78 cell growth in vivo | growth inhibition effect in CDK9-depleted (shRNA) Hut78 xenografts (Hut78 xenografts; shCDK9-1 or shCDK9-2): significantly impaired the growth inhibition effect of GT-02897 | degradation of CDK9 (immunoblot) (CDK9 [9]): strong degradation of CDK9 | inhibition of CTCL cells, co-administration with ATRA (Hut78 cells [2]; Hut78, in vitro, cell number by trypan blue): more significant inhibition of CTCL cells | CDK9 in isolated tumor tissues (IHC) (CDK9 [10]): in vivo degradation of CDK9 by GT-02897 was further confirmed

CC(C)(C)c1cnc(CSc2cnc(NC(=O)C3CCN(CCCCCCCCSc4cccc5c4CN(C4CCC(=O)NC4=O)C5=O)CC3)s2)o1 (centres unmarked) [Compound 24, N-(5-(((5-(tert-butyl)oxazol-2-yl)methyl)thio)thiazol-2-yl)-1-(8-((2-(2,6-dioxopiperidin-3-yl)-1-oxoisoindolin-4-yl)thio)octyl)piperidine-4-carboxamide]
protein levels of CDK2, CDK6 and CDK7 (immunoblot) (CDK2, CDK6 and CDK7): without interfering protein levels of CDK2, CDK6 and CDK7 | degradation of CDK9 (immunoblot) (CDK9 [9]): strong degradation of CDK9

CC(C)(C)c1cnc(CSc2cnc(NC(=O)C3CCN(CCCCSc4cccc5c4C(=O)N(C4CCC(=O)NC4=O)C5=O)CC3)s2)o1 (centres unmarked) [Compound 25, N-(5-(((5-(tert-butyl)oxazol-2-yl)methyl)thio)thiazol-2-yl)-1-(4-((2-(2,6-dioxopiperidin-3-yl)-1,3-dioxoisoindolin-4-yl)thio)butyl)piperidine-4-carboxamide]
protein levels of CDK2, CDK6 and CDK7 (immunoblot) (CDK2, CDK6 and CDK7): without interfering protein levels of CDK2, CDK6 and CDK7 | IC50 (Hut78 cells [4]; Homo sapiens, HuT78, 48 h): 50 to 165 nM | degradation of CDK9 (immunoblot) (CDK9 [9]): strong degradation of CDK9

CC(C)(C)c1cnc(CSc2cnc(NC(=O)C3CCN(CCCCCCCSc4cccc5c4C(=O)N(C4CCC(=O)NC4=O)C5=O)CC3)s2)o1 (centres unmarked) [Compound 26, N-(5-(((5-(tert-butyl)oxazol-2-yl)methyl)thio)thiazol-2-yl)-1-(7-((2-(2,6-dioxopiperidin-3-yl)-1,3-dioxoisoindolin-4-yl)thio)heptyl)piperidine-4-carboxamide]
protein levels of CDK2, CDK6 and CDK7 (immunoblot) (CDK2, CDK6 and CDK7): without interfering protein levels of CDK2, CDK6 and CDK7 | IC50 (Hut78 cells [4]; Homo sapiens, HuT78, 48 h): 50 to 165 nM | degradation of CDK9 (immunoblot) (CDK9 [9]): strong degradation of CDK9

CC(C)(C)c1cnc(CSc2cnc(NC(=O)C3CCN(CCCCCCCCSc4cccc5c4C(=O)N(C4CCC(=O)NC4=O)C5=O)CC3)s2)o1 (centres unmarked) [Compound 27, N-(5-(((5-(tert-butyl)oxazol-2-yl)methyl)thio)thiazol-2-yl)-1-(8-((2-(2,6-dioxopiperidin-3-yl)-1,3-dioxoisoindolin-4-yl)thio)octyl)piperidine-4-carboxamide]
IC50 (Hut78 cells [4]; Homo sapiens, HuT78, 48 h): 50 to 165 nM

CN1CC[C@H](c2c(O)cc(O)c3c(=O)cc(-c4ccccc4Cl)oc23)[C@H](O)C1 [Flavopiridol]
RARα protein (Western blot) (RARα): did not yield upregulation of RARα | mRNA level of RARA (RARA mRNA): nor did it affect the mRNA level of RARA | HH tumors in xenograft models (HH tumors): induced regression of HH tumors in vivo

CC(C)C[C@@H](C=O)NC(=O)[C@H](CC(C)C)NC(=O)[C@H](CC(C)C)NC(=O)OCc1ccccc1 [MG132, reference compound] (Cbz-Leu-Leu-Leu-aldehyde)
effect of MG132 on CDK9 loss induced by GT-02897 (CDK9 [9]; Hut78, GT-02897 in presence or absence of MG132): reverted the expression of CDK9 protein

O=C1NCCc2[nH]c(-c3ccncc3)cc21 [PHA-767491, reference compound]
IC50 (Hut78 cells [4]; Hut78 cells, 48-h, trypan blue): 926 nM | effect of pre-treatment on degradation of CDK9 by GT-02897 (CDK9 [11]): significantly dampened the degradation of CDK9

CC(C)(C)c1cnc(CSc2cnc(NC(=O)C3CCNCC3)s2)o1 [SNS-032]
effect of pre-treatment on degradation of CDK9 by GT-02897 (CDK9 [11]): significantly dampened the degradation of CDK9 | HH tumors in xenograft models (HH tumors): induced regression of HH tumors in vivo

CC(C)(C)c1cnc(CSc2cnc(NC(=O)C3CCN(CC(=O)NCCOCCOCCOCCNc4cccc5c4C(=O)N(C4CCC(=O)NC4=O)C5=O)CC3)s2)o1 (centres unmarked) [THAL-SNS-032]
CDK9 protein (Western blot) (CDK9 [12]): induced significant loss of CDK9 | killing in CTCL cells (Hut78 cells [13]): nor did it display effective killing | CDK9 protein (Western blot) (CDK9 [14]): did not disturb CDK9 protein
